± gives the standard deviation of the averaged measurements.
Tests used:
ERLOTINIB = compound: C#Cc1cccc(Nc2ncnc3cc(OCCOC)c(OCCOC)cc23)c1 [ERLOTINIB]; test: surviving fraction relative to DMSO-only wells; higher = less growth inhibition; conditions: exposure time: 5 days
In short: (§1)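 Each tumour cell line was screened three times, and only lines with replicate Pearson r >0.7 and median Z' >0.3 were kept. Cells in log phase were seeded at 250–500 per well in 384-well plates, left 24 hours, then exposed continuously for five days to inhibitors at 0.5, 1, 5, 10, 50, 100, 500 and 1000 nM. Viability was read as CellTiter-Glo luminescence, with surviving fraction normalised to the median of DMSO-only wells.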

VINORELBINE = compound: CCC1=C[C@@H]2CN(C1)Cc1c([nH]c3ccccc13)[C@@](C(=O)OC)(c1cc3c(cc1OC)N(C)[C@H]1[C@@](O)(C(=O)OC)[C@H](OC(C)=O)[C@]4(CC)C=CCN5CC[C@]31[C@@H]54)C2 [VINORELBINE]; test: as above; conditions: exposure time: 5 days
In short: as §1

Test System | surviving fraction (ERLOTINIB; 0.5 nM) | surviving fraction (ERLOTINIB; 1 nM) | surviving fraction (ERLOTINIB; 5 nM) | surviving fraction (ERLOTINIB; 10 nM) | surviving fraction (ERLOTINIB; 50 nM) | surviving fraction (ERLOTINIB; 100 nM) | surviving fraction (ERLOTINIB; 500 nM) | surviving fraction (ERLOTINIB; 1000 nM) | surviving fraction (VINORELBINE; 0.5 nM) | surviving fraction (VINORELBINE; 1 nM) | surviving fraction (VINORELBINE; 5 nM) | surviving fraction (VINORELBINE; 10 nM) | surviving fraction (VINORELBINE; 50 nM) | surviving fraction (VINORELBINE; 100 nM) | surviving fraction (VINORELBINE; 500 nM) | surviving fraction (VINORELBINE; 1000 nM)
SG31 HEADNECK | 1.29 ± 0.38 | 1.29 ± 0.13 | 1.03 ± 0.11 | 0.863 ± 0.092 | 1.08 ± 0.18 | 0.762 ± 0.059 | 0.716 ± 0.2 | 0.667 ± 0.21 | 1.08 ± 0.15 | 1.19 ± 0.14 | 0.848 ± 0.12 | 0.82 ± 0.11 | 0.369 ± 0.04 | 0.315 ± 0.021 | 0.308 ± 0.057 | 0.38 ± 0.072
SG32 HEADNECK | 1.14 ± 0.11 | 1.11 ± 0.092 | 1.1 ± 0.29 | 1.03 ± 0.18 | 1.12 ± 0.14 | 1.11 ± 0.092 | 0.795 ± 0.067 | 1.26 ± 0.28 | 1.32 ± 0.21 | 1.18 ± 0.3 | 0.81 ± 0.042 | 0.621 ± 0.047 | 0.258 ± 0.041 | 0.302 ± 0.053 | 0.409 ± 0.076 | 0.437 ± 0.048
SG43 HEADNECK | 1.06 ± 0.2 | 0.978 ± 0.049 | 0.882 ± 0.18 | 0.734 ± 0.17 | 0.689 ± 0.13 | 0.458 ± 0.16 | 0.265 ± 0.032 | 0.335 ± 0.097 | 1.04 ± 0.14 | 1.13 ± 0.097 | 0.785 ± 0.095 | 0.669 ± 0.075 | 0.47 ± 0.036 | 0.364 ± 0.093 | 0.242 ± 0.066 | 0.138 ± 0.066
SIHA CERVIX | 1.1 ± 0.05 | 1.075 ± 0.0096 | 1.12 ± 0.074 | – | 1.1 ± 0.067 | 1.08 ± 0.099 | – | 1.06 ± 0.038 | 1.09 ± 0.064 | 1.14 ± 0.13 | 1.12 ± 0.027 | 1.03 ± 0.064 | 0.324 ± 0.016 | 0.277 ± 0.085 | 0.341 ± 0.022 | 0.327 ± 0.055
SJSA1 BONE | 1.69 ± 0.11 | 0.267 ± 0.022 | 1.55 ± 0.035 | 0.189 ± 0.0056 | 1.02 ± 0.032 | 1.76 ± 0.13 | 1.75 ± 0.1 | – | 1.03 ± 0.021 | 1 ± 0.041 | 1.04 ± 0.076 | 0.971 ± 0.033 | 0.499 ± 0.029 | 0.211 ± 0.022 | 0.0877 ± 0.009 | 0.0907 ± 0.0081
SKBR3 BREAST | 1.11 ± 0.13 | 1.1 ± 0.15 | 1.07 ± 0.15 | 1.15 ± 0.1 | 1.11 ± 0.024 | 1.05 ± 0.08 | 1.04 ± 0.15 | 0.874 ± 0.06 | 0.957 ± 0.093 | 1.17 ± 0.035 | 0.532 ± 0.12 | 0.291 ± 0.058 | 0.146 ± 0.013 | 0.156 ± 0.019 | 0.179 ± 0.0087 | 0.182 ± 0.015
SNU475 LIVER | 1.01 ± 0.03 | – | 0.974 ± 0.064 | 0.982 ± 0.044 | 0.957 ± 0.03 | 1 ± 0.047 | 0.909 ± 0.012 | 0.88 ± 0.057 | 0.982 ± 0.019 | 0.998 ± 0.011 | 1.01 ± 0.029 | 1 ± 0.038 | 0.386 ± 0.041 | 0.197 ± 0.021 | 0.17 ± 0.019 | 0.204 ± 0.032
SUM44 BREAST | 1.31 ± 0.45 | 1.19 ± 0.29 | 1.28 ± 0.4 | 1.21 ± 0.26 | 1.34 ± 0.49 | 1.32 ± 0.36 | 1.39 ± 0.53 | 1.29 ± 0.38 | 1.01 ± 0.068 | 0.972 ± 0.034 | 0.668 ± 0.068 | 0.387 ± 0.024 | 0.258 ± 0.013 | 0.225 ± 0.023 | 0.264 ± 0.014 | 0.256 ± 0.024
SUM149 BREAST | 1.1 ± 0.12 | 1.11 ± 0.12 | 1.01 ± 0.13 | 0.966 ± 0.082 | 0.922 ± 0.13 | 0.75 ± 0.03 | 0.454 ± 0.042 | 0.434 ± 0.033 | 1.07 ± 0.072 | 1.11 ± 0.038 | 1.03 ± 0.059 | 0.768 ± 0.076 | 0.052 ± 0.0027 | 0.0443 ± 0.0076 | 0.0563 ± 0.0047 | 0.061 ± 0.0046
SUM149.B1*.S BREAST | 1.11 ± 0.071 | 1.12 ± 0.021 | 1.09 ± 0.065 | 1.09 ± 0.017 | 1.15 ± 0.048 | 1.08 ± 0.013 | 1.07 ± 0.069 | 1.08 ± 0.079 | 1.11 ± 0.042 | 1.06 ± 0.05 | 1.09 ± 0.057 | 0.994 ± 0.015 | 0.338 ± 0.038 | 0.154 ± 0.017 | 0.171 ± 0.019 | 0.193 ± 0.0067
SUM159 BREAST | 1.11 ± 0.039 | 1.1 ± 0.033 | 1.09 ± 0.023 | 1.07 ± 0.024 | 1.07 ± 0.013 | 1.05 ± 0.015 | 1.07 ± 0.012 | 1.06 ± 0.016 | 0.966 ± 0.14 | 0.944 ± 0.2 | 0.941 ± 0.2 | 0.908 ± 0.23 | 0.423 ± 0.19 | 0.156 ± 0.052 | 0.129 ± 0.053 | 0.12 ± 0.046
SYO1 SYNOVIAL | 1.02 ± 0.016 | 1.04 ± 0.034 | 1.03 ± 0.017 | 0.986 ± 0.067 | 1.01 ± 0.023 | 1.01 ± 0.015 | 1.02 ± 0.028 | – | 1.03 ± 0.021 | 1 ± 0.027 | 0.818 ± 0.056 | 0.429 ± 0.062 | 0.114 ± 0.011 | 0.0666 ± 0.0041 | 0.052 ± 0.0061 | 0.0546 ± 0.005
T47D BREAST | 1.13 ± 0.059 | 1.08 ± 0.052 | 1.13 ± 0.084 | 1.09 ± 0.028 | 1.18 ± 0.039 | 1.17 ± 0.048 | 1.16 ± 0.084 | 1.12 ± 0.039 | 1.03 ± 0.026 | 1.01 ± 0.03 | 0.735 ± 0.026 | 0.609 ± 0.023 | 0.356 ± 0.0061 | 0.341 ± 0.016 | 0.369 ± 0.025 | 0.373 ± 0.013
U2OS BONE | 1.06 ± 0.016 | – | – | – | 1.11 ± 0.015 | 1.04 ± 0.028 | 1.02 ± 0.014 | – | 1.09 ± 0.022 | 1.03 ± 0.044 | 0.993 ± 0.032 | 0.954 ± 0.04 | 0.569 ± 0.036 | 0.273 ± 0.023 | 0.116 ± 0.0097 | 0.0883 ± 0.012
VCAP PROSTATE | 1 ± 0.042 | 0.988 ± 0.16 | 1.17 ± 0.089 | 1.15 ± 0.057 | 1.13 ± 0.093 | 1.08 ± 0.084 | 1.11 ± 0.05 | 1.09 ± 0.093 | 1.1 ± 0.096 | 1.02 ± 0.035 | 0.64 ± 0.04 | 0.299 ± 0.031 | 0.0883 ± 0.012 | 0.0827 ± 0.021 | 0.122 ± 0.0049 | 0.148 ± 0.022
VP229 BREAST | 1.05 ± 0.087 | 1.21 ± 0.12 | 1.17 ± 0.14 | 1.1 ± 0.086 | 1.06 ± 0.091 | 0.825 ± 0.048 | 0.568 ± 0.048 | 0.413 ± 0.06 | 1.13 ± 0.18 | 0.962 ± 0.062 | 0.958 ± 0.098 | 0.8 ± 0.048 | 0.351 ± 0.043 | 0.297 ± 0.016 | 0.275 ± 0.012 | 0.245 ± 0.014
YAMATO SYNOVIAL | 1.28 ± 0.12 | 1.29 ± 0.088 | 1.43 ± 0.079 | 1.26 ± 0.036 | 1.39 ± 0.071 | 1.35 ± 0.014 | 1.31 ± 0.074 | 1.2 ± 0.15 | 1.04 ± 0.06 | 1.08 ± 0.042 | 1 ± 0.024 | 0.646 ± 0.05 | 0.391 ± 0.036 | 0.36 ± 0.014 | 0.346 ± 0.015 | 0.397 ± 0.0053
ZR751 BREAST | 1.01 ± 0.04 | 1.29 ± 0.17 | 1.14 ± 0.14 | 1.05 ± 0.087 | 0.926 ± 0.14 | 0.881 ± 0.14 | 0.71 ± 0.18 | 0.766 ± 0.045 | 1.17 ± 0.19 | 1.07 ± 0.1 | 0.7 ± 0.1 | 0.472 ± 0.07 | 0.492 ± 0.054 | 0.431 ± 0.057 | 0.297 ± 0.064 | 0.263 ± 0.041

From the supplement of paper PMC6045584
